Columns and labels:
[1] = Active ingredient release (dissolution) of 1 mg capsules and tablets; assay type: physicochemical; conditions: 0.3% SDS in water, paddle, 100 rpm
Protocol: The release values were compared in a test medium, which comprises 0.3% SDS in water, with paddle stirrIng, 100 rpm.
Active Ingredient Release:
Active ingredient release measured in 1000 mL water with 0.3% sodium dodecyl sulfate, 100 rpm
Content Determination by HPLC with external calibration
Column: LiChrosphere 5μ RP-18 encapped, 150×3 mm
Eluent: acetonitrile/water=45/55

[2] = molecular target: T1, progesterone receptor (PR) (Homo sapiens, UniProt P06401); conditions: cited from earlier work
T1 sequence (P06401 1-933): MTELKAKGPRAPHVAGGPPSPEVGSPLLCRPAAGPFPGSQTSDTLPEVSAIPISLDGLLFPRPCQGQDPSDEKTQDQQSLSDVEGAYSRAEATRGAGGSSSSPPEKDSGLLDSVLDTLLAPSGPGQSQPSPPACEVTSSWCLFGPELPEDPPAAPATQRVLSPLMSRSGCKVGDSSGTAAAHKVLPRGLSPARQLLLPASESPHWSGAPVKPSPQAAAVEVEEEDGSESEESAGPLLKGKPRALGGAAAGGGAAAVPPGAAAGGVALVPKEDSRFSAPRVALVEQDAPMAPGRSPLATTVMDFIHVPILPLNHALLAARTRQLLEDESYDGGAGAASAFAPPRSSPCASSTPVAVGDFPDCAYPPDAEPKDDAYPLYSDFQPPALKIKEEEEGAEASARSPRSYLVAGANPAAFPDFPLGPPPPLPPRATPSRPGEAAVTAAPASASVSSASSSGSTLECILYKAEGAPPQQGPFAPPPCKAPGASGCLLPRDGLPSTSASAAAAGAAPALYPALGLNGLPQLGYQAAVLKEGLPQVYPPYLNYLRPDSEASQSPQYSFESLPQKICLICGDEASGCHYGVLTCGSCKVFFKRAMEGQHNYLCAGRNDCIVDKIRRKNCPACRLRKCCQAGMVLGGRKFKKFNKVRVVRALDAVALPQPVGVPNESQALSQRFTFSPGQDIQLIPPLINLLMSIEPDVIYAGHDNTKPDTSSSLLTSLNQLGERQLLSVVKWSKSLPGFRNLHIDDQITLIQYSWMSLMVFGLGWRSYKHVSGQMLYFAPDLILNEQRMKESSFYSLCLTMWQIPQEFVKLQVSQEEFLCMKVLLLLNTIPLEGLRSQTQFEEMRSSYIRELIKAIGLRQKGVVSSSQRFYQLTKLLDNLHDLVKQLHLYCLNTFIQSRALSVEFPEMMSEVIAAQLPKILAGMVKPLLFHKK

progesterone receptor = molecular target: T2, progesterone receptor (Homo sapiens, UniProt P06401); conditions: in comparison to RU 486; cited from earlier work
T2 sequence (P06401 1-933): T1 sequence (P06401 1-933)

[3] = in comparison to RU 486 (mifeprison); cited from earlier work
[4] = Stability of medicinal preparations under ICH conditions; assay type: physicochemical; conditions: 40° C., 70% relative humidity; decomposition of carbamate to nitrile
Text: The carbamate functional group of the above-mentioned 11β-benz-aldoxim-estra-4,9-diene derivative decomposes to form a nitrile by splitting off ethylamine and CO2.

[5] = 1 mg capsule, microcrystalline J956, particle diameter X50 3.4 μm, X100 25 μm
[6] = 1 mg capsule, microcrystalline J956, particle diameter X50 5.2 μm, X100 30 μm
[7] = 1 mg capsule, microcrystalline J956, particle diameter X50 6.6 μm, X100 43 μm
[8] = 1 mg capsule, microcrystalline J956, particle diameter X50 8.7 μm, X100 43 μm
[9] = 1 mg capsule, microcrystalline J956, particle diameter X50 14.1 μm, X100 87 μm
[10] = 1 mg tablet, microcrystalline J956, particle diameter X50 10.6 μm, X100 73 μm
[11] = 1 mg capsule with micronized effective ingredient J956
[12] = 1 mg tablet with micronized effective ingredient J956

CCNC(=O)ON=Cc1ccc(C2CC3(C)C(CCC3(COC)OC)C3CCC4=CC(=O)CCC4=C23)cc1 (stereo not drawn) [J956, 11β-{4-[(ethylamino-carbonyl)oximinomethyl]phenyl}-17β-methoxy-17α-methoxymethyl-estra-4,9-dien-3-one]
RELEASE in % 0 min [1, 5]: 0% | RELEASE in % 10 min [1, 5]: 90.7% | RELEASE in % 20 min [1, 5]: 97.3% | RELEASE in % 30 min [1, 5]: 98.1% | RELEASE in % 45 min [1, 5]: 99.9% | RELEASE in % 0 min [1, 6]: 0% | RELEASE in % 10 min [1, 6]: 89.8% | RELEASE in % 20 min [1, 6]: 93.5% | RELEASE in % 30 min [1, 6]: 93.4% | RELEASE in % 45 min [1, 6]: 95.6% | RELEASE in % 0 min [1, 7]: 0% | RELEASE in % 10 min [1, 7]: 93.2% | RELEASE in % 20 min [1, 7]: 95.9% | RELEASE in % 30 min [1, 7]: 96.7% | RELEASE in % 45 min [1, 7]: 96.8% | RELEASE in % 0 min [1, 8]: 0% | RELEASE in % 10 min [1, 8]: 93.5% | RELEASE in % 20 min [1, 8]: 96.7% | RELEASE in % 30 min [1, 8]: 98.5% | RELEASE in % 45 min [1, 8]: 99.7% | RELEASE in % 0 min [1, 9]: 0% | RELEASE in % 10 min [1, 9]: 90.2% | RELEASE in % 20 min [1, 9]: 95.3% | RELEASE in % 30 min [1, 9]: 96.0% | RELEASE in % 45 min [1, 9]: 96.3% | RELEASE in % 0 min [1, 10]: 0% | RELEASE in % 10 min [1, 10]: 73.7% | RELEASE in % 20 min [1, 10]: 90.3% | RELEASE in % 30 min [1, 10]: 91.85% | RELEASE in % 45 min [1, 10]: 96.6% | activity in vivo at the progesterone receptor (PR) [2]: both agonistic and also antagonistic activity | activity at the progesterone receptor (progesterone receptor): same activity as RU 486 | antiglucocorticoid activity [3]: considerably reduced antiglucocorticoid activity

CCNC(=O)O/N=C/c1ccc([C@H]2C[C@@]3(C)[C@@H](CC[C@]3(COC)OC)[C@@H]3CCC4=CC(=O)CCC4=C32)cc1 [Micronizate]
RELEASE in % 0 min [1, 11]: 0% | RELEASE in % 10 min [1, 11]: 92.1% | RELEASE in % 20 min [1, 11]: 94.3% | RELEASE in % 30 min [1, 11]: 94.6% | RELEASE in % 45 min [1, 11]: 94.9% | RELEASE in % 0 min [1, 12]: 0% | RELEASE in % 10 min [1, 12]: 92.1% | RELEASE in % 20 min [1, 12]: 94.3% | RELEASE in % 30 min [1, 12]: 94.6% | RELEASE in % 45 min [1, 12]: 94.9% | stability of effective ingredient in medicinal preparations under ICH [4]: not sufficiently stable

From patent publication US7192942B2, “Process for production of crystals of 11μ-benzaldoxim-estra-4,9-diene derivatives, crystals obtained thereby and pharmaceutical preparations containing them” (Schering AG, priority 2002, dated 2007)
